In patent publication US5760065A, “Anti-HIV agent” (priority 1994, dated 1998):

What was measured:
[1] = in vitro; assay type: cell-based; conditions: human, u937 cells, MTT method
Method: (§1) U937 cells (derived from human lymphocytes) infected with HIV (type IIIB) were cultured in RPMI-1640 medium (Biocell Laboratories) containing Test Compound (I) and 10% fetal bovine serum (FBS) at 37° C. for 15 minutes in a CO2 -incubator. The cultured U937 cells were washed with RPMI-1640 medium and then cultured in RPMI-1640 medium containing 10% FBS at 37° C. for 6 hours in the CO2 -incubator. The degree of inhibition of HIV budding by the test compound was evaluated by the reverse transcriptase activity in a unit culture. Cytotoxicity test was carried out by the MTT method [J. Immunol. Method., 65, 55 (1983)].

[2] = tested on: smooth muscle; conditions: 113th Meeting of the Japanese Society of Veterinary Science (1992); cited from earlier work
[3] = literature, qualitative; cited from earlier work
[4] = tested on: platelet; conditions: 67th Annual Meeting of the Japanese Pharmacological Society (1994); cited from earlier work
[5] = literature, qualitative; cited from earlier work; remark: listed apart in the source
[6] = tested on: HIV (type IIIB); test: HIV proliferation inhibitory activity: HIV budding from infected U937 cells, evaluated by reverse transcriptase activity; assay type: cell-based; conditions: 15 min with compound, then 6 h culture
Method: as §1

[7] = tested on: actin; conditions: 67th Annual Meeting of the Japanese Pharmacological Society (1994); cited from earlier work
[8] = literature, qualitative; cited from earlier work; remark: listed apart in the source

| SMILES | cytotoxicity [3] | antifungal activity [5] | other results |
| --- | --- | --- | --- |
| COCC(OC)C(=O)OC(CCC(C)C(CC1OC(=O)CC(O)C/C=C/C(=O)C(C)C(OC)c2coc(n2)-c2coc(n2)-c2coc(n2)/C=C/CC(OC)C1C)OC)C(C)C(OC(C)=O)C(C)/C=C/N(C)C=O (centres unmarked) [Mycalolide B] | have cytotoxicity | antifungal activity | cytotoxicity at 0.1 µM ([1]; 10^-7 M): 4.3%; cytotoxicity at 0.01 µM ([1]; 10^-8 M): 2.2%; cytotoxicity at 0.001 µM ([1]; 10^-9 M): 1.5%; cytotoxicity at 0.0001 µM ([1]; 10^-10 M): 0.7%; inhibitory activity against contraction of smooth muscle [2]: inhibitory activity against contraction of smooth muscle; anti-platelet activity [4]: anti-platelet activity; inhibition at 0.1 µM ([6]; Human immunodeficiency virus 1, U-937, 10^-7 M): 71.4%; inhibition at 0.01 µM ([6]; Human immunodeficiency virus 1, U-937, 10^-8 M): 57.1%; inhibition at 0.001 µM ([6]; Human immunodeficiency virus 1, U-937, 10^-9 M): 28.6%; inhibition at 0.0001 µM ([6]; Human immunodeficiency virus 1, U-937, 10^-10 M): 14.3%; actin polymerization inhibitory activity [7]: actin polymerization inhibitory activity |
| COC(CC1OC(=O)CC(OC(C)=O)CCCC(O)C(C)C(OC)c2coc(n2)-c2coc(n2)-c2coc(n2)/C=C/CC(OC)C1C)C(C)CCC(=O)C(C)C(OC)C(C)/C=C/N(C)C=O (centres unmarked) [Kabiramide E] | have cytotoxicity |  |  |
| COC(CC1OC(=O)CC(O)C/C=C/C(=O)C(C)C(OC)c2coc(n2)-c2coc(n2)-c2coc(n2)/C=C/CCC1C)C(C)CCC(=O)C(C)C(OC)C(C)/C=C/N(C)C=O (centres unmarked) [Jaspisamide C] | have cytotoxicity |  |  |
| COC(C)C(=O)OC(CCC(C)C(CC1OC(=O)CC(O)C/C=C/C(=O)C(C)C(OC)c2coc(n2)-c2coc(n2)-c2coc(n2)/C=C/CC(OC)C1C)OC)C(C)C(OC(C)=O)C(C)/C=C/N(C)C=O (centres unmarked) [Mycalolide C] | have cytotoxicity | antifungal activity |  |
| COC(CC1OC(=O)CC(O)CCCC(=O)C(C)C(OC)c2coc(n2)-c2coc(n2)-c2coc(n2)/C=C/CCC1C)C(C)CCC(=O)C(C)C(C/C=C/N(C)C=O)OC (centres unmarked) [Dihydrohalichondramide] | have cytotoxicity | antifungal activity |  |
| COC(CC1OC(=O)CC(O)CCCC(O)C(C)C(OC)c2coc(n2)-c2coc(n2)-c2coc(n2)/C=C/CCC1C)C(C)CCC(=O)C(C)C(OC)C(C)/C=C/N(C)C=O (centres unmarked) [Tetrahydrohalichondramide] | has cytotoxicity | antifungal activity |  |
| COC(CC1OC(=O)CC(OC(N)=O)CCCC(O)C(C)C(OC)c2coc(n2)-c2coc(n2)-c2coc(n2)/C=C/CC(OC)C1C)C(C)CCC(=O)C(C)C(OC)C(C)/C=C/N(C)C=O (centres unmarked) [Kabiramide C] |  | has antifungal activity |  |
| COC(CC1OC(=O)CC(OC(N)=O)CCCC(O)C(CO)C(OC)c2coc(n2)-c2coc(n2)-c2coc(n2)/C=C/CC(OC)C1C)C(C)CCC(=O)C(C)C(OC)C(C)/C=C/N(C)C=O (centres unmarked) [Kabiramide A] | have cytotoxicity |  |  |
| COC(=O)/C=C/CCC(C)C(CC(OC)C(C)CCC(=O)C(C)C(C/C=C/N(C)C=O)OC)OC(=O)CC(O)CC=CC(=O)C(C)C(OC)c1coc(-c2coc(C(N)=O)n2)n1 (centres unmarked) [Isohalichondramide (ester form)] | have cytotoxicity | antifungal activity |  |
| COCC(OC)C(=O)OC(CCC(C)C(CC1OC(=O)CC(O)CCCC(=O)CC(C)c2coc(n2)-c2coc(n2)-c2coc(n2)/C=C/CC(OC)C1C)OC)C(C)C(OC(C)=O)C(C)/C=C/N(C)C=O (centres unmarked) [Ulpualide B] | have cytotoxicity |  | antibacterial activity [8]: antibacterial activity |
| COC(CC1OC(=O)CC(O)CCCC(O)C(C)C(OC)c2coc(n2)-c2coc(n2)-c2coc(n2)/C=C/CC(OC)C1C)C(C)CCC(=O)C(C)C(OC)C(C)/C=C/N(C)C=O (centres unmarked) [Kabiramide D] | have cytotoxicity |  |  |
| COC(CC1OC(=O)CC(O)CCCC(=O)C(C)C(OC)c2coc(n2)-c2coc(n2)-c2coc(n2)/C=C/CCC1C)C(C)CCC(=O)C(C)C(OC)C(C)/C=C/N(C)C=O (centres unmarked) [33-Methyldihydrohalichondramide] | have cytotoxicity |  |  |
| COC(CC1OC(=O)CC(O)C/C=C/C(=O)C(C)C(OC)c2coc(n2)-c2coc(n2)-c2coc(n2)/C=C/CCC1C)C(C)CCC(=O)C(C)C(C/C=C/N(C)C=O)OC (centres unmarked) [Halichondramide] | have cytotoxicity | antifungal activity |  |
| COC(CC1OC(=O)CC(O)C/C=C/C(=O)C(C)C(OC)c2coc(n2)-c2coc(n2)-c2coc(n2)/C=C/CC(O)C1C)C(C)CCC(=O)C(C)C(C/C=C/N(C)C=O)OC (centres unmarked) [Jaspisamide B] | have cytotoxicity |  |  |
| COC(CC1OC(=O)CC(O)CC=CC(=O)C(C)C(OC)c2coc(n2)-c2coc(n2)-c2coc(n2)/C=C/CCC1C)C(C)CCC(=O)C(C)C(C/C=C/N(C)C=O)OC (centres unmarked) [Isohalichondramide] | have cytotoxicity | antifungal activity |  |
| COC(CC1OC(=O)CC(O)CCCC(=O)CC(C)c2coc(n2)-c2coc(n2)-c2coc(n2)/C=C/CC(OC)C1C)C(C)CCC(=O)C(C)C(OC(C)=O)C(C)/C=C/N(C)C=O (centres unmarked) [Ulpualide A] | have cytotoxicity |  | antibacterial activity [8]: antibacterial activity |
| COC(CC1OC(=O)CC(O)CC(O)CC(=O)C(C)C(OC)c2coc(n2)-c2coc(n2)-c2coc(n2)/C=C/CCC1C)C(C)CCC(=O)C(C)C(C/C=C/N(C)C=O)OC (centres unmarked) [Jaspisamide A] | have cytotoxicity |  |  |
| COC(CC1OC(=O)CC(OC(N)=O)CCCC(O)C(C)C(OC)c2coc(n2)-c2coc(n2)-c2coc(n2)/C=C/CC(O)C1C)C(C)CCC(=O)C(C)C(OC)C(C)/C=C/N(C)C=O (centres unmarked) [Kabiramide B] | have cytotoxicity |  |  |
| COC(CC1OC(=O)CC(O)CC=CC(=O)C(C)C(OC)c2coc(n2)-c2coc(n2)-c2coc(n2)/C=C/CCC1C)C(C)CCC(=O)C(C)C(CCC(=O)O)OC (centres unmarked) [Isohalichondramide (carboxylic acid form)] | have cytotoxicity | antifungal activity |  |
| COC(CC1OC(=O)CC(O)CC=CC(=O)C(C)C(OC)c2coc(n2)-c2coc(n2)C(=O)NC(=O)/C=C/CCC1C)C(C)CCC(=O)C(C)C(C/C=C/N(C)C=O)OC (centres unmarked) [Isohalichondramide (imide form)] | have cytotoxicity | antifungal activity |  |
| COC(CC1OC(=O)CC(O)C/C=C/C(=O)C(C)C(OC)c2coc(n2)-c2coc(n2)-c2coc(n2)/C=C/CC(OC)C1C)C(C)CCC(=O)C(C)C(OC(C)=O)C(C)/C=C/N(C)C=O (centres unmarked) [Mycalolide A] | have cytotoxicity | antifungal activity |  |
